# In patent publication US9707305B2, “Formulas for diagnosing and treating hormone-dependent cancers and cancers of the organs responsible for steroid hormone synthesis” (Commissariat à l'énergie atomique et aux énergies …, priority 2011, dated 2017):
# Experiment: Biodistribution of the nano-emulsion of Example 1.1 (radioactivity and fluorescence per organ)
# Type: in vivo
# Method: In the following examples, the radioactivity was counted with the TRiCarb Counter (Ref: Packard, Liquid Scintillation Analyzers; Models 2200CA).
# Fluobeam 700 (Fluoptics) is the apparatus with which the whole of the organs from the biodistribution were analyzed in fluorescence as well as the one with which the biodistribution kinetics of the nano-emulsions were established in vivo. This imaging system allows viewing of the fluorescence in spectral bands from 700 to 850 nm for a 650 nm excitation. The apparatus consists of an electric case containing the laser of class 3B, its power supply and an optical head containing the CCD camera.
# The nano-emulsions of Example 1 were injected into FVB female and male mice. As a comparison, a mixture of three tracers ([3H]CHE, [14C]CO and DiD) (not formulated as a nano-emulsion) was injected in order to observe the distribution of the tracers in the absence of droplets being used as a distribution carrier.
# Tables 6 to 14 provide the biodistribution results of each tracer ([3H]CHE, [14C]CO and DiD) expressed as a percentage of the dose injected per gram of tissue (or [3H]CHE and [14C]CO) or as fluorescence intensity (for DiD) depending on the organ of the mouse, 15 minutes (Table 6), 2 hours (Table 7), 4 hours (Table 8), 6 hours (Table 9), 16 hours (Table 10), 24 hours (Table 11), 72 hours (Table 12), 120 hours (Table 13) and 168 hours (Table 14), after injection into an FVB female mouse of the nano-emulsion of Example 1.1. (nano-emulsion according to the invention comprising the three tracers ([3H]CHE, [14C]CO and DiD).
# [1] = 15 min after injection of nano-emulsion of Example 1.1, FVB female mouse
# [2] = 2 h after injection of nano-emulsion of Example 1.1, FVB female mouse
# [3] = 4 h after injection of nano-emulsion of Example 1.1, FVB female mouse
# [4] = 16 h (Table 9 head) after injection of nano-emulsion of Example 1.1, FVB female mouse
# [5] = 24 h (Table 10 head) after injection of nano-emulsion of Example 1.1, FVB female mouse
# [6] = 48 h (Table 11 head) after injection of nano-emulsion of Example 1.1, FVB female mouse
# [7] = 72 h after injection of nano-emulsion of Example 1.1, FVB female mouse
# [8] = 120 h after injection of nano-emulsion of Example 1.1, FVB female mouse
# [9] = 168 h after injection of nano-emulsion of Example 1.1, FVB female mouse
structure (smiles),measurement,setting,value
"CCCCCCCCCCCCCCCCO[C@H]1CC[C@@]2(C)C(=CC[C@H]3[C@@H]4CC[C@H]([C@H](C)CCCC(C)C)[C@@]4(C)CC[C@@H]32)C1 [[3H]CHE, cholesteryl hexadecylether]","biodistribution, Adrenal glands (MEAN)",[1],10.60 % of injected dose per gram of
same,"biodistribution, Brain (MEAN)",[1],0.476 % of injected dose per gram of
same,"biodistribution, Fat (MEAN)",[1],1.10 % of injected dose per gram of
same,"biodistribution, Heart (MEAN)",[1],8.303 % of injected dose per gram of
same,"biodistribution, Intestine (MEAN)",[1],1.71 % of injected dose per gram of
same,"biodistribution, Kidney (MEAN)",[1],4.09 % of injected dose per gram of
same,"biodistribution, Liver (MEAN)",[1],8.26 % of injected dose per gram of
same,"biodistribution, Lung (MEAN)",[1],3.91 % of injected dose per gram of
same,"biodistribution, Muscle (MEAN)",[1],0.675 % of injected dose per gram of
same,"biodistribution, Ovary (MEAN)",[1],5.38 % of injected dose per gram of
same,"biodistribution, Pancreas (MEAN)",[1],1.233 % of injected dose per gram of
same,"biodistribution, Salivary glands (MEAN)",[1],1.157 % of injected dose per gram of
same,"biodistribution, Spleen (MEAN)",[1],3.63 % of injected dose per gram of
same,"biodistribution, Uterus (MEAN)",[1],0.90 % of injected dose per gram of
same,"biodistribution, Adrenal glands (MEAN)",[2],21.12 % of injected dose per gram of
same,"biodistribution, Brain (MEAN)",[2],0.26 % of injected dose per gram of
same,"biodistribution, Fat (MEAN)",[2],0.76 % of injected dose per gram of
same,"biodistribution, Heart (MEAN)",[2],4.64 % of injected dose per gram of
same,"biodistribution, Intestine (MEAN)",[2],2.44 % of injected dose per gram of
same,"biodistribution, Kidneys (MEAN)",[2],3.83 % of injected dose per gram of
same,"biodistribution, Liver (MEAN)",[2],31.09 % of injected dose per gram of
same,"biodistribution, Lung (MEAN)",[2],4.44 % of injected dose per gram of
same,"biodistribution, Muscle (MEAN)",[2],0.45 % of injected dose per gram of
same,"biodistribution, Ovary (MEAN)",[2],29.28 % of injected dose per gram of
same,"biodistribution, Pancreas (MEAN)",[2],1.43 % of injected dose per gram of
same,"biodistribution, Salivary glands (MEAN)",[2],1.42 % of injected dose per gram of
same,"biodistribution, Spleen (MEAN)",[2],5.10 % of injected dose per gram of
same,"biodistribution, Uterus (MEAN)",[2],2.23 % of injected dose per gram of
same,"biodistribution, Adrenal glands (MEAN)",[3],28.13 % of injected dose per gram of
same,"biodistribution, Brain (MEAN)",[3],0.19 % of injected dose per gram of
same,"biodistribution, Fat (MEAN)",[3],1.40 % of injected dose per gram of
same,"biodistribution, Heart (MEAN)",[3],4.94 % of injected dose per gram of
same,"biodistribution, Intestine (MEAN)",[3],2.46 % of injected dose per gram of
same,"biodistribution, Kidney (MEAN)",[3],2.51 % of injected dose per gram of
same,"biodistribution, Liver (MEAN)",[3],37.43 % of injected dose per gram of
same,"biodistribution, Lungs (MEAN)",[3],4.02 % of injected dose per gram of
same,"biodistribution, Muscle (MEAN)",[3],0.41 % of injected dose per gram of
same,"biodistribution, Ovary (MEAN)",[3],39.41 % of injected dose per gram of
same,"biodistribution, Pancreas (MEAN)",[3],1.01 % of injected dose per gram of
same,"biodistribution, Salivary glands (MEAN)",[3],1.09 % of injected dose per gram of
same,"biodistribution, Spleen (MEAN)",[3],5.00 % of injected dose per gram of
same,"biodistribution, Uterus (MEAN)",[3],1.69 % of injected dose per gram of
same,"biodistribution, Adrenal glands (MEAN)",[4],43.16 % of injected dose per gram of
same,"biodistribution, Brain (MEAN)",[4],0.13 % of injected dose per gram of
same,"biodistribution, Fat (MEAN)",[4],1.36 % of injected dose per gram of
same,"biodistribution, Heart (MEAN)",[4],3.49 % of injected dose per gram of
same,"biodistribution, Intestine (MEAN)",[4],4.87 % of injected dose per gram of
same,"biodistribution, Kidney (MEAN)",[4],2.06 % of injected dose per gram of
same,"biodistribution, Liver (MEAN)",[4],47.67 % of injected dose per gram of
same,"biodistribution, Lungs (MEAN)",[4],4.63 % of injected dose per gram of
same,"biodistribution, Muscle (MEAN)",[4],0.76 % of injected dose per gram of
same,"biodistribution, Ovary (MEAN)",[4],52.26 % of injected dose per gram of
same,"biodistribution, Pancreas (MEAN)",[4],1.17 % of injected dose per gram of
same,"biodistribution, Salivary glands (MEAN)",[4],1.27 % of injected dose per gram of
same,"biodistribution, Spleen (MEAN)",[4],7.48 % of injected dose per gram of
same,"biodistribution, Uterus (MEAN)",[4],3.91 % of injected dose per gram of
same,"biodistribution, Adrenal glands (MEAN)",[5],39.68 % of injected dose per gram of
same,"biodistribution, Brain (MEAN)",[5],0.09 % of injected dose per gram of
same,"biodistribution, Fat (MEAN)",[5],0.88 % of injected dose per gram of
same,"biodistribution, Heart (MEAN)",[5],3.53 % of injected dose per gram of
same,"biodistribution, Intestine (MEAN)",[5],2.78 % of injected dose per gram of
same,"biodistribution, Kidney (MEAN)",[5],1.50 % of injected dose per gram of
same,"biodistribution, Liver (MEAN)",[5],48.76 % of injected dose per gram of
same,"biodistribution, Lung (MEAN)",[5],3.21 % of injected dose per gram of
same,"biodistribution, Muscle (MEAN)",[5],0.46 % of injected dose per gram of
same,"biodistribution, Ovary (MEAN)",[5],38.06 % of injected dose per gram of
same,"biodistribution, Pancreas (MEAN)",[5],0.64 % of injected dose per gram of
same,"biodistribution, Salivary glands (MEAN)",[5],1.40 % of injected dose per gram of
same,"biodistribution, Spleen (MEAN)",[5],7.50 % of injected dose per gram of
same,"biodistribution, Uterus (MEAN)",[5],1.82 % of injected dose per gram of
same,"biodistribution, Adrenal glands (MEAN)",[6],42.26 % of injected dose per gram of
same,"biodistribution, Brain (MEAN)",[6],0.08 % of injected dose per gram of
same,"biodistribution, Fat (MEAN)",[6],1.05 % of injected dose per gram of
same,"biodistribution, Heart (MEAN)",[6],3.52 % of injected dose per gram of
same,"biodistribution, Intestine (MEAN)",[6],4.43 % of injected dose per gram of
same,"biodistribution, Kidney (MEAN)",[6],1.63 % of injected dose per gram of
same,"biodistribution, Liver (MEAN)",[6],58.43 % of injected dose per gram of
same,"biodistribution, Lungs (MEAN)",[6],3.91 % of injected dose per gram of
same,"biodistribution, Muscle (MEAN)",[6],0.36 % of injected dose per gram of
same,"biodistribution, Ovary (MEAN)",[6],36.42 % of injected dose per gram of
same,"biodistribution, Pancreas (MEAN)",[6],1.00 % of injected dose per gram of
same,"biodistribution, Salivary glands (MEAN)",[6],1.09 % of injected dose per gram of
same,"biodistribution, Spleen (MEAN)",[6],12.32 % of injected dose per gram of
same,"biodistribution, Uterus (MEAN)",[6],3.75 % of injected dose per gram of
same,"biodistribution, Adrenal glands (MEAN)",[7],36.92 % of injected dose per gram of
same,"biodistribution, Brain (MEAN)",[7],0.08 % of injected dose per gram of
same,"biodistribution, Fat (MEAN)",[7],0.85 % of injected dose per gram of
same,"biodistribution, Heart (MEAN)",[7],2.98 % of injected dose per gram of
same,"biodistribution, Intestine (MEAN)",[7],3.58 % of injected dose per gram of
same,"biodistribution, Kidney (MEAN)",[7],1.27 % of injected dose per gram of
same,"biodistribution, Liver (MEAN)",[7],39.73 % of injected dose per gram of
same,"biodistribution, Lungs (MEAN)",[7],2.95 % of injected dose per gram of
same,"biodistribution, Muscle (MEAN)",[7],0.22 % of injected dose per gram of
same,"biodistribution, Ovary (MEAN)",[7],25.11 % of injected dose per gram of
same,"biodistribution, Pancreas (MEAN)",[7],0.74 % of injected dose per gram of
same,"biodistribution, Salivary glands (MEAN)",[7],1.10 % of injected dose per gram of
same,"biodistribution, Spleen (MEAN)",[7],7.65 % of injected dose per gram of
same,"biodistribution, Uterus (MEAN)",[7],5.63 % of injected dose per gram of
same,"biodistribution, Adrenal gland (MEAN)",[8],41.92 % of injected dose per gram of
same,"biodistribution, Brain (MEAN)",[8],0.08 % of injected dose per gram of
same,"biodistribution, Fat (MEAN)",[8],0.68 % of injected dose per gram of
same,"biodistribution, Heart (MEAN)",[8],2.59 % of injected dose per gram of
same,"biodistribution, Intestine (MEAN)",[8],3.60 % of injected dose per gram of
same,"biodistribution, Kidney (MEAN)",[8],1.29 % of injected dose per gram of
same,"biodistribution, Liver (MEAN)",[8],39.13 % of injected dose per gram of
same,"biodistribution, Lungs (MEAN)",[8],3.30 % of injected dose per gram of
same,"biodistribution, Muscle (MEAN)",[8],0.27 % of injected dose per gram of
same,"biodistribution, Ovary (MEAN)",[8],16.92 % of injected dose per gram of
same,"biodistribution, Pancreas (MEAN)",[8],1.00 % of injected dose per gram of
same,"biodistribution, Salivary glands (MEAN)",[8],2.14 % of injected dose per gram of
same,"biodistribution, Spleen (MEAN)",[8],9.69 % of injected dose per gram of
same,"biodistribution, Uterus (MEAN)",[8],4.99 % of injected dose per gram of
same,"biodistribution, Adrenal glands (MEAN)",[9],29.30 % of injected dose per gram of
same,"biodistribution, Brain (MEAN)",[9],0.07 % of injected dose per gram of
same,"biodistribution, Fat (MEAN)",[9],0.99 % of injected dose per gram of
same,"biodistribution, Heart (MEAN)",[9],2.19 % of injected dose per gram of
same,"biodistribution, Intestine (MEAN)",[9],2.80 % of injected dose per gram of
same,"biodistribution, Kidneys (MEAN)",[9],1.44 % of injected dose per gram of
same,"biodistribution, Liver (MEAN)",[9],32.70 % of injected dose per gram of
same,"biodistribution, Lungs (MEAN)",[9],1.70 % of injected dose per gram of
same,"biodistribution, Muscle (MEAN)",[9],0.37 % of injected dose per gram of
same,"biodistribution, Ovary (MEAN)",[9],20.61 % of injected dose per gram of
same,"biodistribution, Pancreas (MEAN)",[9],0.79 % of injected dose per gram of
same,"biodistribution, Salivary glands (MEAN)",[9],2.01 % of injected dose per gram of
same,"biodistribution, Spleen (MEAN)",[9],10.71 % of injected dose per gram of
same,"biodistribution, Uterus (MEAN)",[9],4.86 % of injected dose per gram of
